Data published in ChEMBL document CHEMBL1155340, “Discovery of a novel azepine series of potent and selective 5-HT2C agonists as potential treatments for urinary incontinence” (Bioorg Med Chem Lett, 2009).

Tests used:
[1] = in vitro; conditions: human, liver microsomes
Description: (§1) Metabolic stability in human liver microsomes assessed per mg of protein

[2] = physchem; conditions: buffer, pH 7.4
Description: Lipophilicity, log D at pH 7.4

[3] = system: MDR1; assay: in vitro; conditions: dog, MDCK-MDR1
Description: Apparent membrane permeability across apical to basolateral side of MDR1 expressing MDCK cells

[4] = target: T1, 5-hydroxytryptamine receptor 2C (Homo sapiens, UniProt P28335)
T1 sequence (P28335 whole entry): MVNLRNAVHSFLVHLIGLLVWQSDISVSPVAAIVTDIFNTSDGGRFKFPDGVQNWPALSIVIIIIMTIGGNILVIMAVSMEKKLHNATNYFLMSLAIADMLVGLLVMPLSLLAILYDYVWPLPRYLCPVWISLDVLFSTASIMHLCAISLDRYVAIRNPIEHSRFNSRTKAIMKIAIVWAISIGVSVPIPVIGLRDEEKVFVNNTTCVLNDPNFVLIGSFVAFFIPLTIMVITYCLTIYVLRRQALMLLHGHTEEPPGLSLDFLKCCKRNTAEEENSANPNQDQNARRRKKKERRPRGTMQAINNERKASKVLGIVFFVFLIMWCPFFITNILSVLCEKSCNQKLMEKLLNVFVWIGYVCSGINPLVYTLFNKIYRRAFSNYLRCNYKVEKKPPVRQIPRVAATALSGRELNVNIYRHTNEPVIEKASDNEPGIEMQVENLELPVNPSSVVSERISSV

[5] = target: T2, 5-hydroxytryptamine receptor 2B (Homo sapiens, UniProt P41595)
T2 sequence (P41595 whole entry): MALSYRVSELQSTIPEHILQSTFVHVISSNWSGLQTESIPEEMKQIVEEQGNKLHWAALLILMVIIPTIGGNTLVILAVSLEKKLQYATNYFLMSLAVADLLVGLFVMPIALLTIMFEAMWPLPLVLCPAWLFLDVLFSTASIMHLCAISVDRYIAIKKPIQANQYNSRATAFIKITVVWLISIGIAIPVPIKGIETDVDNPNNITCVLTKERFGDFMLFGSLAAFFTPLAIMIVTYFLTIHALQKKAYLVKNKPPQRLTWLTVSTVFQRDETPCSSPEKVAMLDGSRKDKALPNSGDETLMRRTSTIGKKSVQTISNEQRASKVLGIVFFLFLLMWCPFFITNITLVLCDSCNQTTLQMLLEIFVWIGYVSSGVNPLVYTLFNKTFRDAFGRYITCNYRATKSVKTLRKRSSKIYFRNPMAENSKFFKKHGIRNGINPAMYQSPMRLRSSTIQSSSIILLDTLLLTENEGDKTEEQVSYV

[6] = target: T2, 5-hydroxytryptamine receptor 2B; assay: Agonist activity at human recombinant 5HT2B receptor assessed as induction of calcium mobilization by FLIPR assay relative to 5-HT; type: functional
[7] = target: T3, 5-hydroxytryptamine receptor 2C (Homo sapiens) (UniProt P28335); assay: Agonist activity at human recombinant 5HT2C receptor expressed in CHO K1 cells assessed as induction of calcium mobilization by FLIPR assay relative to 5-HT; type: functional, cell-based
T3 sequence (whole entry): T1 sequence (P28335 whole entry)

[8] = species: Homo sapiens; assay: Selectivity ratio of EC50 for human recombinant 5HT2B receptor to EC50 for human recombinant 5HT2A receptor
[9] = target: T2, 5-hydroxytryptamine receptor 2B; assay: Agonist activity at human recombinant 5HT2B receptor assessed as induction of calcium mobilization at 10 uM by FLIPR assay relative to 5-HT; type: functional
[10] = target: 5-hydroxytryptamine receptor 2A (Canis lupus familiaris) (UniProt O46635); assay: Agonist activity at 5-HT2A receptor in dog bladder strip relative to 5-HT; type: functional
Sequence of 5-hydroxytryptamine receptor 2A (Canis lupus familiaris) (O46635 whole entry): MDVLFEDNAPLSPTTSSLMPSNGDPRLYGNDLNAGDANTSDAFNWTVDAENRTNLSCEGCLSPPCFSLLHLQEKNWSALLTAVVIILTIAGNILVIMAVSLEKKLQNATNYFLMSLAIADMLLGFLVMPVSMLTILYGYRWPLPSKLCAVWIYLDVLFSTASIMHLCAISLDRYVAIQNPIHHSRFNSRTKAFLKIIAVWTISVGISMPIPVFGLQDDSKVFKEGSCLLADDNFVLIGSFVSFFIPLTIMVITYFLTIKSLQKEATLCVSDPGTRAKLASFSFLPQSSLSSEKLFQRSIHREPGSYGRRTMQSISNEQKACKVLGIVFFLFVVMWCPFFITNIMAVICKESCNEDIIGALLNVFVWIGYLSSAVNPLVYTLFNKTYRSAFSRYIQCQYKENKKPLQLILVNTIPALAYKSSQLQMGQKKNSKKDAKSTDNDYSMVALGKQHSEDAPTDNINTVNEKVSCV

[11] = target: 5-hydroxytryptamine receptor 2A (Canis lupus familiaris, UniProt O46635); assay: Agonist activity at 5-HT2A receptor in dog bladder strip; type: functional
Sequence of 5-hydroxytryptamine receptor 2A (O46635 whole entry): as above

[12] = target: Muscarinic acetylcholine receptor M3 (Homo sapiens, UniProt P20309); assay: Inhibition of muscarinic receptor 3
Sequence of Muscarinic acetylcholine receptor M3 (P20309 whole entry): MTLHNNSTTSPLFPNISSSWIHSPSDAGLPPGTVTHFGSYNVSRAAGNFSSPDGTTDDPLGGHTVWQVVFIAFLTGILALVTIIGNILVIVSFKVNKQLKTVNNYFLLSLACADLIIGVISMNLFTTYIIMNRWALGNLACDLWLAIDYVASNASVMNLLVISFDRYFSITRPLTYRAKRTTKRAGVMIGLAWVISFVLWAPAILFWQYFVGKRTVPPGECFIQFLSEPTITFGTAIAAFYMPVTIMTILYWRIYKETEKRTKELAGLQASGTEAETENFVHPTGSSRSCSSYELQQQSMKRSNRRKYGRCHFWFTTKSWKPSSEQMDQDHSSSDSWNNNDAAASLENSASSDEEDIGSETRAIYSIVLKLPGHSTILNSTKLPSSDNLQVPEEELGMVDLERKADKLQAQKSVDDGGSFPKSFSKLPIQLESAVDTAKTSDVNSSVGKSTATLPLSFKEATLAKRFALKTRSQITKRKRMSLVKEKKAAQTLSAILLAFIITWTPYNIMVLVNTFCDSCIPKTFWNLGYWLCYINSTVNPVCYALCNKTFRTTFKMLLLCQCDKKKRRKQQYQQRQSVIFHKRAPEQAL

[13] = target: Cytochrome P450 2D6 (Homo sapiens, UniProt P10635); assay: Inhibition of CYP2D6; type: ADME
Sequence of Cytochrome P450 2D6 (P10635 whole entry): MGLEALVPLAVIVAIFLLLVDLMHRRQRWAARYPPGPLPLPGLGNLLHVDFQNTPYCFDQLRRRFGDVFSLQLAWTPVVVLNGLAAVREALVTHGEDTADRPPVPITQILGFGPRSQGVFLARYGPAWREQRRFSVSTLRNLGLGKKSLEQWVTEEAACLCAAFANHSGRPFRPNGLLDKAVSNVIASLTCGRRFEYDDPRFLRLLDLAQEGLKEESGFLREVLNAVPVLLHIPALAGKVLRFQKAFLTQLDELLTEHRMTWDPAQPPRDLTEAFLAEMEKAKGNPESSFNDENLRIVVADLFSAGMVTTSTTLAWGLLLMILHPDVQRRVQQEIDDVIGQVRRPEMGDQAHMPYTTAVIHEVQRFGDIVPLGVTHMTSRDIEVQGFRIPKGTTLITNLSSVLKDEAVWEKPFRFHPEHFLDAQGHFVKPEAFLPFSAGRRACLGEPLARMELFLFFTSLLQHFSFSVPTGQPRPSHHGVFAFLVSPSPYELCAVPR

[14] = Plasma concentration in dog model of stress incontinence at 150 ug/kg, iv after 60 mins; type: ADME, organism-based, Canis lupus familiaris; conditions: 0.15 mg/kg
[15] = target: Cytochrome P450 2C9 (Homo sapiens, UniProt P11712); assay: Inhibition of CYP2C9; type: ADME
Sequence of Cytochrome P450 2C9 (P11712 whole entry): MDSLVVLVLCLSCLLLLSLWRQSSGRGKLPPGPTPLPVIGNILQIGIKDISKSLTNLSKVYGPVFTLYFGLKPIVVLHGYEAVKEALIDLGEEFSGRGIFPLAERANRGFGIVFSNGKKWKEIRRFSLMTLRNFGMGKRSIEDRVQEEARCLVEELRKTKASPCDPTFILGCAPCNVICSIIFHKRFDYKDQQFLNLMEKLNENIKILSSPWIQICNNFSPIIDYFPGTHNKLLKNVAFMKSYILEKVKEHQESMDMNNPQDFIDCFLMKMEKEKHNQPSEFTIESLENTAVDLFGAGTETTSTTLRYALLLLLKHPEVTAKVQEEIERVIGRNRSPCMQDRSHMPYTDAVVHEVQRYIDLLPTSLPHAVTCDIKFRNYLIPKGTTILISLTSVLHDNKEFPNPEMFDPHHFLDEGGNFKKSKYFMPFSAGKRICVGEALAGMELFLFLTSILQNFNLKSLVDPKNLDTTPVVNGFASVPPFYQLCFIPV

[16] = system: Canis familiaris; assay: Increase of peak urethral pressure in dog model of stress incontinence at 150 ug/kg, iv after 60 mins; type: functional, Canis lupus familiaris, Urethra
[17] = target: Beta-2 adrenergic receptor (Homo sapiens, UniProt P07550); assay: Inhibition of beta2 adrenergic receptor
Sequence of Beta-2 adrenergic receptor (P07550 whole entry): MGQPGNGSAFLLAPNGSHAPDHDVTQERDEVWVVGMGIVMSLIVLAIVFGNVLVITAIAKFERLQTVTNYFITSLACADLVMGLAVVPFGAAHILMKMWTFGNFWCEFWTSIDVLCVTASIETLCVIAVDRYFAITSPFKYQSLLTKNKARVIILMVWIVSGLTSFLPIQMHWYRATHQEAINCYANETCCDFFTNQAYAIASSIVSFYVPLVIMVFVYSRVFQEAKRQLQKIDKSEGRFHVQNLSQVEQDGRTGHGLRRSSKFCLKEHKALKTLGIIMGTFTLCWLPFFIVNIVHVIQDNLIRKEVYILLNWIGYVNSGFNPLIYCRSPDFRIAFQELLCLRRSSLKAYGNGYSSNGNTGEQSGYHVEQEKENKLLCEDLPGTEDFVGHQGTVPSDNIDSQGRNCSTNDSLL

[18] = target: Cytochrome P450 3A4 (Homo sapiens, UniProt P08684); assay: Inhibition of CYP3A4; type: ADME
Sequence of Cytochrome P450 3A4 (P08684 whole entry): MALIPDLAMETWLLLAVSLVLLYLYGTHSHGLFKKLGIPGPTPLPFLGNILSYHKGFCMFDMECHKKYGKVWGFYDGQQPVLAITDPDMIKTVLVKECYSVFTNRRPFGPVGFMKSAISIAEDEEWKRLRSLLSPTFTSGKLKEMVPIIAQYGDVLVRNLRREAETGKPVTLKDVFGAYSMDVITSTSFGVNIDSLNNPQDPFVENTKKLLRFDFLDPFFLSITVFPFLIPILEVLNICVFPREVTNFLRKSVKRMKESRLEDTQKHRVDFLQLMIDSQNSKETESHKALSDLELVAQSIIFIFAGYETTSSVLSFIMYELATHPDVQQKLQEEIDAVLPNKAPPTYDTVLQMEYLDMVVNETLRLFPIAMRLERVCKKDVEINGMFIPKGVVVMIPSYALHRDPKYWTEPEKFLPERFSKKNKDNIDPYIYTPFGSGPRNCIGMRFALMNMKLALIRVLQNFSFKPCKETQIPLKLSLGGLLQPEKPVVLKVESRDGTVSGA

[19] = target: T4, Cytochrome P450 1A2 (Homo sapiens, UniProt P05177); assay: Inhibition of CYP1A2; type: ADME
T4 sequence (P05177 whole entry): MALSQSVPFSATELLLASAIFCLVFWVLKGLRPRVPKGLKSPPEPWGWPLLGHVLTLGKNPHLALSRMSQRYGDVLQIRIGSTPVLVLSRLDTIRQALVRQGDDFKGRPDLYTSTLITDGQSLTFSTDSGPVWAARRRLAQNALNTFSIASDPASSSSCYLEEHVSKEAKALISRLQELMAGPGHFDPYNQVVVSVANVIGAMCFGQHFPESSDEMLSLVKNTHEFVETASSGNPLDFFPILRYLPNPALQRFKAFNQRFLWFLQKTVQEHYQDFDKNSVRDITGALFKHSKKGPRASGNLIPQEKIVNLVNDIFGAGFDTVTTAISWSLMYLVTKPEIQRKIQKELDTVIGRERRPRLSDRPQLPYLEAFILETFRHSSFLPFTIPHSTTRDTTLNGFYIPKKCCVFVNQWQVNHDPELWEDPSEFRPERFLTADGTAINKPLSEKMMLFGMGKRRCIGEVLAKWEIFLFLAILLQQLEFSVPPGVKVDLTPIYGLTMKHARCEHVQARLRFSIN

[20] = target: Voltage-gated inwardly rectifying potassium channel KCNH2 (Homo sapiens, UniProt Q12809); assay: Displacement of dofrtilide from human ERG channel
Sequence of Voltage-gated inwardly rectifying potassium channel KCNH2 (Q12809 whole entry): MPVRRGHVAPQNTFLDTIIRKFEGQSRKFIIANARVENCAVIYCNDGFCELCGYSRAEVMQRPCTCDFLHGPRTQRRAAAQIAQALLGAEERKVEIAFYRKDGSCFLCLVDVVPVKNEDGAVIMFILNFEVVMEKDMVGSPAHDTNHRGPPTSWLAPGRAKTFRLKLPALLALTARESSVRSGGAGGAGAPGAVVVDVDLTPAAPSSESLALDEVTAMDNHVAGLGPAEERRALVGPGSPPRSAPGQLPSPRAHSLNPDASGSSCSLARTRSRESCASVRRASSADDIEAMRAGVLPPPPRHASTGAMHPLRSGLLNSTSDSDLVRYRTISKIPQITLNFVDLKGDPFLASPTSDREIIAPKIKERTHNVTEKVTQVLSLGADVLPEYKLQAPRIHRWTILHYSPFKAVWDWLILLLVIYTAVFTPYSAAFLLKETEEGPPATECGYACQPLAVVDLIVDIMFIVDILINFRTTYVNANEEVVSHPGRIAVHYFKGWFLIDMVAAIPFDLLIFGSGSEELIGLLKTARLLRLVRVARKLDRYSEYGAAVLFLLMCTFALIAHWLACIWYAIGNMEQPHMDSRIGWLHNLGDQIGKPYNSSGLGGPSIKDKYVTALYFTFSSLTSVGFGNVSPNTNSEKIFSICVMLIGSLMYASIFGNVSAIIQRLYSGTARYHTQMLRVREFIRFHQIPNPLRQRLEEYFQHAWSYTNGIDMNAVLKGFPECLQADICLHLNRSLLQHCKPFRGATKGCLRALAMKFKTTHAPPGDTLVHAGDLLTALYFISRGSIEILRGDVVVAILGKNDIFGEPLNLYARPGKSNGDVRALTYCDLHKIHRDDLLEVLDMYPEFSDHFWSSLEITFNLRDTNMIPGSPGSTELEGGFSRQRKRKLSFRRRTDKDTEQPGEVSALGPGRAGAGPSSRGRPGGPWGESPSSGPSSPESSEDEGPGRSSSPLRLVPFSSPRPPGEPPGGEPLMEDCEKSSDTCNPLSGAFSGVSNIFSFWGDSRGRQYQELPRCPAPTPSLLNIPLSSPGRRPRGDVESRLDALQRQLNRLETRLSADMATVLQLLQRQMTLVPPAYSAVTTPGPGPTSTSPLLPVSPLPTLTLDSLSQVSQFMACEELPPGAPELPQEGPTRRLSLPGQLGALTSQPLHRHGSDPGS

[21] = target: T5, 5-hydroxytryptamine receptor 3A (Homo sapiens, UniProt P46098); assay: Inhibition of 5HT3 receptor
T5 sequence (P46098 whole entry): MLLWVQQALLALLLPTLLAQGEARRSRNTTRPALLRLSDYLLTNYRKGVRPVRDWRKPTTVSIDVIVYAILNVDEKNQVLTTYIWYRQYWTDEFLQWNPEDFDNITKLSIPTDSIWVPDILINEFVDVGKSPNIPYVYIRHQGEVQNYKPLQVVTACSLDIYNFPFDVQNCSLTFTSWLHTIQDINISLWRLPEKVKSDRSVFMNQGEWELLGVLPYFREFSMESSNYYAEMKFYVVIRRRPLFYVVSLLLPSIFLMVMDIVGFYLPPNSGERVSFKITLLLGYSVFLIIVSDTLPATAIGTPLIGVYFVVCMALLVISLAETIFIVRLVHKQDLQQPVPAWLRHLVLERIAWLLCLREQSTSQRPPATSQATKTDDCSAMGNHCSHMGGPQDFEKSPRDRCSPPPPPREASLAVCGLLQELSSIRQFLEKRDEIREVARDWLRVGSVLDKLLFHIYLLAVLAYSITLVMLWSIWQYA

[22] = system: Liver microsomes; conditions: human
Description: as §1

SMILES | microsomal CLint [1] | logD [2] | Papp A→B [3] | EC50 [4] | EC50 [5] | Emax [6] | Emax [7] | other results
c1ccc(COc2n[nH]c3c2CCNCC3)cc1 | < 7 µL/min/mg | 0.5 | 24 ×10⁻⁶ cm/s | 176 nM | 353 nM | 56% |  | 
Cn1c2c(c(=O)n1Cc1ccccc1)CCNCC2 | < 7 µL/min/mg | 0 | 13 ×10⁻⁶ cm/s | 2930 nM | > 10000 nM |  |  | 
O=c1cc2c(nn1Cc1ccccc1Cl)CCNCC2 | < 7 µL/min/mg | 0.9 |  | 33 nM | 94 nM | 67% | 56% | 
O=c1cc2c(nn1Cc1ccccc1OC(F)(F)F)CCNCC2 | < 7 µL/min/mg | 1.2 |  | 107 nM | 142 nM | 86% | 57% | 
O=c1cc2c(nn1Cc1ccccc1)CCNCC2 | < 7 µL/min/mg | 0.3 | 25 ×10⁻⁶ cm/s | 31 nM | 358 nM | 48% | 79% | Ratio EC50 [8]: 10
Cn1nc2c(cc1=O)CCNCC2 |  |  |  | 338 nM |  |  | 52% | Emax [9]: 32%
Cc1nnc2c3c(nc(Cc4ccccc4)n12)CCNCC3 |  |  |  |  |  |  |  | Emax [10]: 36%; EC50 [11]: 1600 nM
O=c1cc2c(nn1Cc1ccc(C(F)(F)F)cc1)CCNCC2 | 10 µL/min/mg | 1.1 |  | 125 nM | 473 nM | 59% | 47% | 
N#Cc1ccc(Cn2nc3c(cc2=O)CCNCC3)cc1 | < 7 µL/min/mg | -0.1 | 11 ×10⁻⁶ cm/s | 6630 nM |  |  | 51% | Emax [9]: 42%
Cc1nc2c3c(nc(Cc4ccccc4)n2n1)CCNCC3 |  |  |  |  |  |  |  | Ki [12]: 8200 nM; inhibition (INH) [13]: < 10%; concentration at 1 h [14]: 89 nM; inhibition (INH) [15]: < 10%; Efficacy [16]: 20%; Ki [17]: 7600 nM; Emax [10]: 40%; inhibition (INH) [18]: < 10%; inhibition (INH) [19]: < 10%; Ki [20]: > 22000 nM; EC50 [11]: 1800 nM; Ki [21]: 3700 nM
O=c1cc2c(nn1CCOc1ccccc1)CCNCC2 | < 7 µL/min/mg | 0.4 |  | > 10000 nM | > 10000 nM |  |  | 
O=c1c2c([nH]n1Cc1ccccc1)CCNCC2 |  | -0.5 | 2 ×10⁻⁶ cm/s | > 10000 nM | > 10000 nM |  | 57% | CL [22]: 13 µL/min/mg
Clc1cccc(N2CCNCC2)c1 |  |  |  |  |  | 35% | 71% | 
O=c1cc2c(nn1Cc1ccc(OC(F)(F)F)cc1)CCNCC2 | < 7 µL/min/mg | 1.5 |  | 48 nM | > 10000 nM | 58% | 66% | 
O=c1cc2c(nn1Cc1ccc(Cl)cc1)CCNCC2 | < 7 µL/min/mg | 1.1 |  | 31 nM | 267 nM | 73% | 40% | 
O=c1cc2c(nn1Cc1ccc(C3CC3)cc1)CCNCC2 | < 7 µL/min/mg | 1.4 |  | 26 nM | 84 nM | 34% | 51% | 
CC(C)CCn1nc2c(cc1=O)CCNCC2 | < 7 µL/min/mg | 0.6 |  | 62 nM |  |  | 77% | Emax [9]: 65%
c1ccc(Cn2cc3c(n2)CCNCC3)cc1 | < 7 µL/min/mg | 0.1 | 27 ×10⁻⁶ cm/s | 4980 nM | > 10000 nM |  | 65% | 
O=c1[nH]n(Cc2ccccc2)c2c1CCNCC2 | < 7 µL/min/mg | -0.1 |  | > 10000 nM | > 10000 nM |  | 68% | 
O=c1cc2c(nn1Cc1cccc(Cl)c1)CCNCC2 | < 7 µL/min/mg | 1.1 | 32 ×10⁻⁶ cm/s | 30 nM | 81 nM | 73% | 70% | 
O=c1cc2c(nn1-c1ccccc1)CCNCC2 |  | -0.3 |  | > 10000 nM | > 10000 nM |  |  | 
